Data taken from patent publication US8703970B2, “Compounds having photochemically removable protecting groups based on an electrocyclic reaction between a chromophore attached via an anilide group to a benzothiophene ring” (Marquette University, priority 2012, dated 2014).
Like-named read-outs stand apart in the source and are kept apart here.

Experiment: Solubility observations on photoproducts
Assay type: physicochemical
Experimental: Photoproduct 26 was identified by ^1H NMR spectroscopy and elemental analysis. […] Regioisomer 28 would have shown only four vicinal couplings in the COSY spectrum. […] The compound was obtainable only as a powder, despite repeated attempts to obtain crystals for structure determination using X-ray diffraction.
Similarly, preparative photolysis of […] acid 9 (LG^−=Cl^−) in N2 saturated 75% H2O in CH3CN containing 100 mM phosphate buffer (pH 7) gave the single regioisomeric photoproduct 27 in 98% yield by NMR integration, as above for 8 (LG^−=Cl^−). The regiospecificity was again established by 600 MHz ^1H NMR COSY. […] Photolysis of acid 9 (LG^−=PhS^−, HS^−, PhCH2S^−) under the same conditions as 8 (LG^−=Cl^−) also gave photoproduct 27 in 98-100% yields upon expulsion of these thiolate leaving groups. For acid 9 (LG^−=PhCH2S^−) the released benzyl thiol was quantified in photolyses of 4.5×10^−3 M solutions of 35% D2O in CD3CN containing phosphate buffer (as above) contained in NMR tubes. Yields were 96% thiol and 99% of 27 at 100% conversion of reactant by ^1H NMR spectroscopy. Very similar results were found when DMSO-d6 was the photolysis solvent.
A 0.010 M solution of 8 (LG^−=Cl^−) in N2 saturated 17% H2O in CH3CN containing 100 mM phosphate buffer at pH 7 was irradiated with a 450 W Hanovia medium pressure mercury lamp with a Pyrex filter for 90 min. […]

| solubility (in DMSO-d6, 13C-NMR could not be obtained) | solubility | Structure (SMILES) |
| --- | --- | --- |
| low solubility |  | Cn1c(=O)c2sc3ccccc3c2c2cc3sc4ccccc4c(=O)c3cc21 [compound 31] |
|  | low solubility | COC(=O)c1ccc2c(c1)sc1c(=O)n(C)c3cc4c(=O)c5cc(Br)ccc5sc4cc3c12 [compound 32, 6-methylcarboxylate-[1]benzothiopheno[2,3-c]benzo[a]anthracene-10-bromo-4-methyl-4H-7-thia-4-aza-3,12-dione] |
